According to US20100029617A1, “1,4,5,6,7,8-HEXAHYDRO-1,2,5-TRIAZA-AZULENE DERIVATIVES AS OREXIN RECEPTOR ANTAGONISTS” (Actelion Pharmaceuticals Ltd., priority 2006, published 2010):
Where two headings read alike, the source gives them in different places.

Key:
human orexin-1 receptor = target: T1, human orexin-1 receptor (Homo sapiens, UniProt O43613); test: Intracellular calcium measurements (FLIPR), orexin receptor antagonistic activity; format: cell-based; conditions: CHO cells expressing human orexin-1 receptor; agonist 10 nM human orexin-A; fluo-3 calcium signal; read-out: IC50 OX1
T1 construct: expressed in transfected cells; host or cells: CHO cells (G418 selection)
T1 sequence (O43613 1-425): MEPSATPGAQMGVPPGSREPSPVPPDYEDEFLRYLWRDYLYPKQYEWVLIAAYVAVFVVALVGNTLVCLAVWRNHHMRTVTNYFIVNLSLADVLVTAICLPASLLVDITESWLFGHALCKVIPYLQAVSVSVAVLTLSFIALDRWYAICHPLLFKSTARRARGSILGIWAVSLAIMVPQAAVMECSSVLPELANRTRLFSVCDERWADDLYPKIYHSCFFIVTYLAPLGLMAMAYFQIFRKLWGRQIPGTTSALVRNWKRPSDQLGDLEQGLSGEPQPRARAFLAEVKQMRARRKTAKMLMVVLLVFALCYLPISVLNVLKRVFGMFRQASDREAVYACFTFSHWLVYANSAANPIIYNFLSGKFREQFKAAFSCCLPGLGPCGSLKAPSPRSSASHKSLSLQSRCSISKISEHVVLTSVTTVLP
Method: (§1) The orexin receptor antagonistic activity of the compounds of formula (II) is determined in accordance with the following experimental method.
(§2) Intracellular Calcium Measurements:
(§3) Chinese hamster ovary (CHO) cells expressing the human orexin-1 receptor and the human orexin-2 receptor, respectively, are grown in culture medium (Ham F-12 with L-Glutamine) containing 300 μg/ml G418, 100 U/ml penicillin, 100 μg/ml streptomycin and 10% inactivated fetal calf serum (FCS). The cells are seeded at 80'000 cells/well into 96-well black clear bottom sterile plates (Costar) which have been precoated with 1% gelatine in Hanks' Balanced Salt Solution (HBSS). All reagents are from Gibco BRL. The seeded plates are incubated overnight at 37° C. in 5% CO2.
(§4) Human orexin-A as an agonist is prepared as 1 mM stock solution in methanol:water (1:1), diluted in HBSS containing 0.1% bovine serum albumin (BSA) and 2 mM HEPES for use in the assay at a final concentration of 10 nM.
(§5) Antagonists are prepared as 10 mM stock solution in DMSO, then diluted in 96-well plates, first in DMSO, then in HBSS containing 0.1% bovine serum albumin (BSA) and 2 mM HEPES.
(§6) On the day of the assay, 100 μl of loading medium (HBSS containing 1% FCS, 2 mM HEPES, 5 mM probenecid (Sigma) and 3 μM of the fluorescent calcium indicator fluo-3 AM (1 mM stock solution in DMSO with 10% pluronic acid) (Molecular Probes) is added to each well.
(§7) The 96-well plates are incubated for 60 min at 37° C. in 5% CO2. The loading solution is then aspirated and cells are washed 3 times with 200 μl HBSS containing 2.5 mM probenecid, 0.1% BSA, 2 mM HEPES. 100 μl of that same buffer is left in each well.
(§8) Within the Fluorescent Imaging Plate Reader (FLIPR, Molecular Devices), antagonists are added to the plate in a volume of 50 μl, incubated for 20 min and finally 100 μl of agonist is added. Fluorescence is measured for each well at 1 second intervals, and the height of each fluorescence peak is compared to the height of the fluorescence peak induced by 10 nM orexin-A with buffer in place of antagonist.

human orexin-2 receptor = target: T2, human orexin-2 receptor (Homo sapiens, UniProt O43614); test: as above; format: cell-based; conditions: read-out: IC50 OX2
T2 construct: expressed in transfected cells; host or cells: CHO cells (G418 selection)
T2 sequence (O43614 1-444): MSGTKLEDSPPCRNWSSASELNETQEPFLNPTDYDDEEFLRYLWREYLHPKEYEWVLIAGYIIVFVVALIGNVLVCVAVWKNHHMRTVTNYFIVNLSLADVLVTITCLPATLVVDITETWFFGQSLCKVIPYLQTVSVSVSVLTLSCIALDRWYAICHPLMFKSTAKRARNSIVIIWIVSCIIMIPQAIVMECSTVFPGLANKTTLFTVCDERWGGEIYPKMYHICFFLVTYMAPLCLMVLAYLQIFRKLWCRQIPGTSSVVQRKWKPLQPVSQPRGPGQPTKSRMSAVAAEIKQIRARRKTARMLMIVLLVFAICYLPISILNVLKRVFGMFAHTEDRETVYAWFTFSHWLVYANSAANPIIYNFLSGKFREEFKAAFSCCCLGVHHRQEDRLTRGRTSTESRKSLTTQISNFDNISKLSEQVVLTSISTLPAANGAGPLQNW
Method: as §1, §2, §3, §4, §5, §6, §7, §8

[1] = CHO cells expressing human orexin-2 receptor, agonist 10 nM human orexin-A, fluo-3 calcium signal

IC50 (human orexin-1 receptor)	IC50 (human orexin-2 receptor; [1])	IC50 (human orexin-2 receptor)	Structure (SMILES)
138 nM	18 nM		CCn1nc(C)c2c1CCCN([C@@H](C(=O)NC)c1ccccc1)[C@H]2CCc1ccc(C(F)(F)F)cc1F [Example 3 (4S;2′R), (R)-2′-{1-ethyl-(S)-4-[2-(2-fluoro-4-trifluoromethyl-phenyl)-ethyl]-3-methyl-4,6,7,8-tetrahydro-1H-1,2,5-triaza-azulen-5-yl}-N-methyl-2′-phenyl-acetamide]
22 nM	12 nM		CCn1nc(C)c2c1CCCN([C@@H](C(=O)NC)c1ccccc1)[C@H]2CCc1cc(F)c(C(F)(F)F)c(F)c1 [Example 1 (4S;2′R), (R)-2′-{(S)-4-[2-(3,5-difluoro-4-trifluoromethyl-phenyl)-ethyl]-1-ethyl-3-methyl-4,6,7,8-tetrahydro-1H-1,2,5-triaza-azulen-5-yl}-N-methyl-2′-phenyl-acetamide]
26 nM		6 nM	CCn1nc(C)c2c1CCCN([C@@H](C(=O)NC)c1ccccc1)[C@H]2CCc1cc(F)c(C)c(F)c1 [Example 4 (4S;2′R), (R)-2′-{(S)-4-[2-(3,5-difluoro-4-methyl-phenyl)-ethyl]-1-ethyl-3-methyl-4,6,7,8-tetrahydro-1H-1,2,5-triaza-azulen-5-yl}-N-methyl-2′-phenyl-acetamide]
36 nM	6 nM		CCn1nc(C)c2c1CCCN([C@@H](C(=O)NC)c1ccccc1)[C@H]2CCc1ccc(C)c(C)c1 [Example 2 (4S;2′R), (R)-2′-{(S)-4-[2-(3,4-dimethyl-phenyl)-ethyl]-1-ethyl-3-methyl-4,6,7,8-tetrahydro-1H-1,2,5-triaza-azulen-5-yl}-N-methyl-2′-phenyl-acetamide]
